One compound from BindingDB's records for doi:10.1021/acs.jmedchem.6b01194 (University of Illinois At Chicago, 2016) can be followed below.

The target of the assay is 5-hydroxytryptamine receptor 2B (Homo sapiens, UniProt P41595). The assay is described as follows: Agonist activity at human 5-HT2B receptor expressed in human Flp-In-293 cells assessed as induction of calcium flux incubated for 1 hr by Fluo-4 direct dye based FLIPR assay. (Calcium flux is commonly read through the fluorescence of an indicator in the cells.)
Sequence of 5-hydroxytryptamine receptor 2B (P41595 whole entry): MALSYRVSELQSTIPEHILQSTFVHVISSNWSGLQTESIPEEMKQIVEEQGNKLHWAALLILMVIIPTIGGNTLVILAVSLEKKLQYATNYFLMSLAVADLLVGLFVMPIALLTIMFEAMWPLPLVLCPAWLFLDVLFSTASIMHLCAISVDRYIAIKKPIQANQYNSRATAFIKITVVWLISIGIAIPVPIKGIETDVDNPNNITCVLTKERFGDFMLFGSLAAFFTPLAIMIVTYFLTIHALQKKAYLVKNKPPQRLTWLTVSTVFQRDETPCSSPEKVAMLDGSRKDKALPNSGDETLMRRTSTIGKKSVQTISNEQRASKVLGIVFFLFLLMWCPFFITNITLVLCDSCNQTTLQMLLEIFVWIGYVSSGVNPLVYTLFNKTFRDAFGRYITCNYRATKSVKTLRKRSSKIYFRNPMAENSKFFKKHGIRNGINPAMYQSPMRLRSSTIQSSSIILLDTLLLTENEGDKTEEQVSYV

A word on the EC50: it is the midpoint of the concentration-response curve. Turning to `NC[C@H]1C[C@@H]1c1c(OCC2CC2)ccc2occc12`, the EC50 worked out at 0.339 µM.
